We go through two compounds from patent US9140688B2, “Sperm staining and sorting methods” (INGURAN, LLC, priority 2011, dated 2015).

What all share (assay type): cell-based
Series [1] deals with bovine sperm. In words: Post thaw percent intact acrosomes (PIA) of sex sorted bovine sperm (Example 1). Particulars: average over all bulls. The method, then: (§1) Sperm was collected from 10 different bulls on a routine collection schedule using an artificial vagina over the course of 4 days. The 10 bulls included both Jersey bulls and Holstein bulls. All ejaculates contained greater than 60% progressive motility and greater than 70% morphological normal sperm. Antibiotics were added within 15 minutes of collection.
Red food dye treatment 40% —A reduced volume of red food dye No. 40 control was established. Sperm was diluted to 160×10^6 sperm per ml in a modified TALP buffer, as described in Table 1, at a pH of 7.4. Samples collected from Jersey bulls were incubated with 16 μl of Hoechst 33342 per 2 ml of sample for between 45 and 60 minutes at 34° C., while samples collected from Holstein bulls were incubated 17 μl of Hoechst 33342 per 2 ml of sample for between 45 and 60 minutes at 34° C. After incubation an equal volume of a second modified TALP was added reducing the concentration to 80×10^6. The second modified TALP includes the components described in Table 1 with the addition of 4% egg yolk, 40 μM red food dye No. 40 (20 g/L) and the pH dropped to 5.5 with HCl. […]
(§2) Straws were thawed the following day for motility measurements at 0 hour and 3 hours. Percent intact acrosomes were measured as well, and the overall averages over all bulls on each day are illustrated in Table 3. […]

The next series relates to elk sperm. Description: Post thaw DNA fragmentation of elk sperm (Example 3). The method, then: Each of deer and elk were collected in the Tris-egg yolk catch fluid described as a catch media in Example 1, and shipped for sorting.
A portion of each of the deer and the elk were stained by the red food dye No. 40 treatment 40% with 16 μL Hoechst 33342 and the yellow food dye No. 6 treatment with 14 μL Hoechst 33342 as described in Example 1.
Samples were each bulk sorted with the same machine and parameters described in Example 1. Both sorted X and sorted Y sperm were collected into a single catch. The sorted samples were then frozen like those described in Example 1.
Frozen thawed samples were then tested for post thaw motilities and post thaw DNA fragmentation. Post thaw motilities were slightly higher in Elk sorted with a yellow quencher, while a more significant difference existed in progressive motility. In Table 10, post thaw DNA fragmentation in Elk can be seen at about double after 48 hours when red food dye No. 40 is compared to yellow food dye No. 6 as a dead quencher.

In a further series the test system is canine sperm. In words: Post thaw motility of sex sorted canine sperm on CASA (Example 4). The settings on record: for Motile, average / Progressive, average: 0 Hr post thaw. The method, then: Sperm was collected from a single canine at room temperature into CaniPro Chill 5, available from Minitube, Wis., USA, then centrifuged into a pellet and resuspended in a Tris buffer at a pH of 6.8.
Samples were extended to 40×10^6 sperm/ml in 1 ml volumes with the Tris buffer described in Example 1 but set to a pH of 7.2. Ten samples were then stained 4, 4, 5, 5, 7, 8, 8, 9, 9, and 10 μL of Hoechst 33342 and quenched with one of two quenching dyes at a concentration of 50 μM in a second buffer Tris buffer.
Red food dye No. 40 quencher—1 ml Tris at a pH 6.3 was added with red food dye No. 40 into samples stained with 4, 5, 8, 9, 10 μL Hoechst 33342. The red food dye No. 40 was added at a concentration of about 50 μM.
Yellow food dye No. 6 quencher—1 ml Tris at a pH 6.3 was added with yellow food dye No. 6 into samples stained with 4, 5, 7, 8, 9 μL Hoechst 33342. The yellow food dye No. 6 was added at the same concentration as the red food dye No. 40 quencher, at about 50 μM.
5 million cells were sex sorted with a MoFlo SX XPD into 50 mL Falcon tubes having 3.5 mL of a Tris-egg yolk catch fluid, described in Example 1 for both X and Y populations. Two samples were sorted, the red food dye No. 40 quenched treatment with 9 μL Hoechst 33342 and the yellow food dye […] quenched treatment with 7 μL Hoechst 33342.
Straws were then frozen and stored in liquid nitrogen.
Straws were thawed for 30 sec in a 38° C. water bath and their motilities were examined on CASA.
Table 12 illustrates the average motilities and progressive motilities for the sorted treatments. Canine sperm quenched with yellow food dye No. 6 provided about 4.5% more motile sperm in the X population and 6.5% more motile sperm in the Y population. Similarly, the yellow quenched dye provided 7% better progressive motility in the X population and 8% better progressive motility in the Y population.

Series [2] concerns bovine sperm. Description: Post thaw motility of sex sorted, frozen-thawed bovine sperm (Example 1). Particulars: average over all bulls, Red with 16-17 μl, Yellow with 14-15 μl Hoechst 33342 per 2 ml; for Post thaw motility, average 0 Hour: dye 20 g/L in second TALP. The method, then:
as §1
Red food dye treatment 40% —A reduced volume of red food dye No. 40 control was established. Sperm was diluted to 160×10^6 sperm per ml in a modified TALP buffer, as described in Table 1, at a pH of 7.4. Samples collected from Jersey bulls were incubated with 16 μl of Hoechst 33342 per 2 ml of sample for between 45 and 60 minutes at 34° C., while samples collected from Holstein bulls were incubated 17 μl of Hoechst 33342 per 2 ml of sample for between 45 and 60 minutes at 34° C. After incubation an equal volume of a second modified TALP was added reducing the concentration to 80×10^6. The second modified TALP includes the components described in Table 1 with the addition of 4% egg yolk, 40 μM red food dye No. 40 (20 g/L) and the pH dropped to 5.5 with HCl.
Yellow Food dye treatment—Yellow food dye was included in a second group at an equal concentration. Sperm was diluted to 160×10^6 sperm per ml in a modified TALP buffer, as described in Table 1, at a pH of 7.4. Samples collected from Jersey bulls were incubated with 14 μl of Hoechst 33342 per 2 ml of sample for between 45 and 60 minutes at 34° C., while sample collected from Holstein bulls were incubated 15 μl of Hoechst 33342 per 2 ml of sample for between 45 and 60 minutes at 34° C. After incubation an equal volume of a second modified TALP was added reducing the concentration to 80×10^6. The second modified TALP includes the components described in Table 1 with the addition 4% egg yolk, 20 g/L yellow food dye No. 6 and a pH dropped to 5.5 with HCl.
Just prior to sorting, each sample was filtered though a 40 μm nylon mesh. Each sample was sorted with an MoFlo SX XDP (Beckman Coulter, Inc., CA USA) operating at 40 psi. A tris-citrate-fructose sheath fluid was used comprising Tris(hydroxymethyl)aminomethane (Sigma Chemical Co, St. Louis, Mo., USA) citric acid monohydrate (Sigma Chemical Co, St. Louis, Mo., USA) and fructose (Sigma Chemical Co, St. Louis, Mo., USA). Antibiotics were additionally added to the sheath fluid.
Unquenched sperm having the desired sex characteristics were collected into a single tube with a tris-egg yolk catch fluid and the remaining sperm was removed with waste. […]
as §2

Turning to `COc1cc(S(=O)(=O)O)c(C)cc1N=Nc1c(O)ccc2cc(S(=O)(=O)O)ccc12` [Red 40, 6-hydroxy-5-[(2-methoxy-5-methyl-4-sulfophenyl)azo]-2-naphthalenesulfonic acid, reference compound], the “Average PIA (percent intact acrosomes)” value in the series on bovine sperm [1] was 70.8%. In the series with elk sperm (elk, 0 h), this compound came in with a Post Thaw DNA fragmentation Elk, Post Sort of 0% and a Post Thaw DNA fragmentation Elk, Pre-sort of 2.3%. In the series on elk sperm (elk, 24 h), this compound returned a Post Thaw DNA fragmentation Elk, Post Sort of 0.3% and a Post Thaw DNA fragmentation Elk, Pre-sort of 5.6%. In the series on elk sperm (elk, 48 h), the Post Thaw DNA fragmentation Elk, Post Sort stood at 0.7% and the Post Thaw DNA fragmentation Elk, Pre-sort is 6%. In the series on canine sperm (X population), the “Motile, average” value is recorded as 19.5 and the “Progressive, average” value was 11.5. Moreover, in the series on canine sperm (Y population), the “Motile, average” value was 18.5 and the “Progressive, average” value worked out at 13. For the same compound, in the series with bovine sperm [2], the “Post thaw motility, average 3 Hour” value is recorded as 47.0% and the “Post thaw motility, average 0 Hour” value is 56.6%.
On to `O=S(=O)([O-])c1ccc(N=Nc2c(O)ccc3cc(S(=O)(=O)[O-])ccc23)cc1.[Na+].[Na+]` [Yellow 6, Disodium 6-hydroxy-5-[(4-sulfophenyl)azo]-2-naphthalenesulfononate], for which, in the series with bovine sperm [1], the “Average PIA (percent intact acrosomes)” value is reported as 71.3%. In the series with elk sperm (0 HR, unit assumed), this compound returned a Post Thaw DNA fragmentation Elk, Post Sort of 0% and a Post Thaw DNA fragmentation Elk, Pre-sort of 2.3%. Also, in the series on elk sperm (24 HR, unit assumed), the Post Thaw DNA fragmentation Elk, Post Sort amounted to 0% and the Post Thaw DNA fragmentation Elk, Pre-sort amounted to 3.3%. Further, in the series with elk sperm (48 HR, unit assumed), the Post Thaw DNA fragmentation Elk, Post Sort was 0.3% and the Post Thaw DNA fragmentation Elk, Pre-sort amounted to 3.7%. Besides, in the series on canine sperm (X population), the “better progressive motility than with red quencher” value turned out to be 7%; the “more motile sperm than with red quencher” value is listed as “about 4.5%”; the “Motile, average” value is 24; the “Progressive, average” value is listed as 18.5. Also, in the series with canine sperm (Y population), the “better progressive motility than with red quencher” value amounted to 8%; the “more motile sperm than with red quencher” value was determined as 6.5%; the “Motile, average” value was found to be 25; the “Progressive, average” value is listed as 21. Besides, in the series with bovine sperm [2], the “Post thaw motility, average 3 Hour” value was determined as 49.0% and the “Post thaw motility, average 0 Hour” value is reported as 57.7%.
